# From patent publication US12000825B2, “Method of selecting stem cells having ability to produce extracellular vesicles with high efficiency using activation of protease-activated receptor-mediated signaling pathways” (SAMSUNG LIFE PUBLIC WELFARE FOUNDATION, priority 2019, dated 2024)
# “Also recorded” adds a separate entry of the source.
# Assays:
# Rab-5 and EEA-1 = experiment: Immunoblot of early endosome markers; format: cell-based, human
# Protocol: (§1) Umbilical cord blood-derived mesenchymal stem cells and EVs were lysed by adding an equal volume of RIPA buffer (Sigma-Aldrich, St. Louis, MO, USA). The protein contents of the lysates were quantified using the Bradford method, and samples containing 10 μg of proteins were mixed with loading buffer containing β-mercaptoethanol, boiled for 10 minutes, and separated according to size by 12% SDS-polyacrylamide gel electrophoresis (SDS-PAGE). Subsequently, the separated proteins were transferred to nitrocellulose membranes, and then a 5% bovine serum albumin (BSA) solution was prepared with 0.5% Tween-20-containing 1×PBS-T, the membranes were blocked therewith at room temperature, followed by treatment with primary antibodies and incubation at room temperature for 1 hour. After incubation, the membranes were washed with 1×PBS-T, followed by incubation with anti-mouse or anti-rabbit horseradish peroxidase-conjugated immunoglobulin G (1:2000) secondary antibodies while being stirred at room temperature for 1 hour. Subsequently, after washing with PBS-T, protein bands were detected using an ECL Select chemiluminescence reagent (GE Healthcare Life Sciences, Piscataway, NJ, USA), and band images were acquired with X-ray films.
# [1] = test system: ERK1/2 and AKT signaling pathways; experiment: Immunoblot of ERK1/2 and AKT phosphorylation; format: cell-based, human
# Protocol: as §1
# [2] = test system: Human umbilical cord blood-derived mesenchymal stem cells (MSCs); experiment: Bioplex assay / ELISA of proteins in EVs (VEGF, angiogenin, angiopoietin-1, HGF); format: cell-based
# Protocol: (§2) To pretreat the umbilical cord blood-derived mesenchymal stem cells with thrombin, first, the mesenchymal stem cells were cultured in α-MEM (Gibco, Grand Island, NY, USA) supplemented with 10% (v/v) fetal bovine serum (FBS, Gibco), 100 units/mL penicillin, and 100 μg/mL streptomycin (Invitrogen, Carlsbad, CA, USA) under standard culture conditions. When the cells reached approximately 90% confluency in a culture plate, the cells were washed three times with phosphate buffered saline (PBS) to remove contaminated FBS-derived exosomes, and were then incubated in new serum-free α-MEM supplemented with human recombinant thrombin (1 U/mL, 2 U/mL, and 4 U/mL; Sigma-Aldrich, St. Louis, MO, USA) for 6 hours. After the medium was collected, about 2×10^6 cells per 100 mm culture dish was counted using a Luna-FL™ system (Logos Biosystems, Anyang-si, Korea).
# To analyze the cytokine levels of EVs by ELISA, an experiment was conducted using the following method. Specifically, a homogenate of isolated EVs was added to a well containing 0.1 mL of lysis buffer in an ELISA kit. Subsequently, proteins in EVs were quantified using the Bradford method, and then 1 μg of protein was loaded into each well. Thereafter, the levels of angiogenin, angiopoietin-1, VEGF, and HGF, which are present in EVs, were quantified using the Fluorokine® MAP Human Angiogenesis Custom Premix Kit A (R & D Systems, Minneapolis, MN, USA).
# [3] = test system: Human umbilical cord blood-derived mesenchymal stem cells (MSCs); experiment: Isolation and quantification of extracellular vesicles (NanoSight); format: cell-based; conditions: for production of EVs: 6 hours, FIG. 1A
# Protocol: as §2
# To isolate extracellular vesicles (hereinafter, referred to as EVs) secreted by the umbilical cord blood-derived mesenchymal stem cells pretreated with thrombin according to the method of Example 1-1, an experiment was conducted according to the following processes. Specifically, the above recovered medium was centrifuged at 3,000 rpm and 4° C. for 30 minutes to remove cell debris, and then centrifuged at 100,000 rpm and 4° C. for 120 minutes to precipitate EVs. Then, the precipitated pellet was washed twice, re-suspended in sterile PBS, and stored at −80° C. until use.
# The distribution of EVs was analyzed by measuring the rate of Brownian motion using NanoSight (NanoSight NS300; Malvern, Worcestershire, UK), which is equipped with fast video capture and particle-tracking software. The obtained EVs were re-suspended in PBS (500 μl, 1 mg/mL total protein), and size and polydispersity thereof were measured. In addition, to quantify the production of EVs by a single cell, cells were counted using a LUNA-FL system according to the manufacturer's protocol using the medium recovered above. The number of EVs produced by a single cell was calculated by dividing the total number of EVs by the number of cells.
# [4] = test system: Human umbilical cord blood-derived mesenchymal stem cells (MSCs); experiment: Early endosome labeling (CellLight Early Endosomes-GFP); format: cell-based
# Protocol: Early endosomes were labeled using CellLight® reagent-green fluorescent protein (GFP), BacMam 2.0 (Thermo Fisher Scientific, San Jose, CA, USA) according to the manufacturer's instructions. Briefly, mesenchymal stem cells were dispensed in a 12-well plate at a density of 1.5×10^4 per well, and after cells were attached, BacMam 2.0 reagent was added at a concentration of 40 particles per cell (PPC). Next, to measure Rab5α-GFP expression, early endosomes were labeled using CellLight® early endosomes-GFP, BacMam 2.0. Thereafter, to estimate the number of GFP-labeled endosomes, the optical density of green immunofluorescence was measured using ImageJ (National Institutes of Health, Bethesda, MD, USA).
# [5] = test system: Human umbilical cord blood-derived mesenchymal stem cells (MSCs); experiment: Observation of EVs by SEM and TEM; format: cell-based; conditions: thrombin-pretreated vs not treated, FIG. 1D
# Protocol: EVs (5 μl) were fixed with 2% glutaraldehyde, loaded on 200-mesh formvar/carbon-coated electron microscopy grids (Electron Microscopy Sciences, Washington, PA, USA), and incubated for 10 minutes. Subsequently, the EVs were washed with filtered distilled water and stained with 2% uranyl acetate in water for 1 minute. Thereafter, the stained EVs were observed using a Tecnai Spirit G2 transmission electron microscope (FEI, Hillsboro, OR, USA) operating at 120 kV, and then an image thereof was acquired.
# Meanwhile, to observe isolated EVs using a scanning electron microscope, EVs were fixed in 2.5% glutaraldehyde and loaded on a polycarbonate membrane. Next, the membrane was washed once with PBS and water and then dehydrated with acetone. Subsequently, the acetone was removed by critical point drying using liquid carbon dioxide. Samples were mounted on aluminum stubs with carbon tape and mounted on an SEM stub. After sputter coating with 3-5 nm platinum, the samples were observed using a scanning electron microscope (Zeiss Auriga Workstation, Oberkochen, Germany) and images thereof were acquired.
# [6] = compared to no thrombin, in proportion to thrombin concentration
molecule,measurement,setting,value
"CC(C)c1ccc(Cn2ccc3c4c(N)nc(NC5CC5)nc4ccc32)cc1.Cl.Cl [SCH79797, N3-cyclopropyl-7-[[4-(1-methylethyl)phenyl]methyl]-7H-pyrrolo[3,2-f]quinazolin-1,3-diamine dihydrochloride, reference compound]","expression levels of Rab-5 and EEA-1, comparison","Rab-5 and EEA-1; thrombin-pretreated MSCs, compared to the PAR3 siRNA-treated group, FIG. 4A",further reduced
same,expression levels of Rab-5 and EEA-1,"Rab-5 and EEA-1; thrombin-pretreated MSCs, compared to thrombin alone, SCH79797 1 μM, FIG. 4A",significantly reduced
same,"increase in phosphorylation of ERK1/2 and AKT by thrombin, comparison","[1]; compared to PAR-3-specific siRNA treatment, FIG. 4B",inhibited at a more significant level
same,increase in phosphorylation of ERK1/2 and AKT by thrombin pretreatment,"[1]; thrombin-pretreated MSCs, SCH79797 1 μM, FIG. 4B",significantly inhibited
same,"increase in the levels of proteins in EVs, comparison","[2]; compared to transfection with PAR3 siRNA, FIG. 5D",inhibited at a higher level
same,"increase in the levels of VEGF, angiogenin, angiopoietin-1 and HGF in EVs","[2]; thrombin-pretreated MSCs, SCH79797 1 μM, FIG. 5D",significantly inhibited
same,"increase in the number of extracellular vesicles by thrombin, comparison","[3]; compared to transfection with PAR3 siRNA, FIGS. 5B and 5C",inhibited at a higher level
same,increase in the number of extracellular vesicles by thrombin treatment,"[3]; thrombin-pretreated MSC culture media, SCH79797 1 μM, FIGS. 5B and 5C",significantly inhibited
same,"increase in the number of early endosomes by thrombin, comparison","[4]; compared to transfection with PAR3 siRNA, FIG. 5A",more significantly inhibited
same,increase in the number of early endosomes by thrombin treatment,"[4]; thrombin-pretreated MSCs, SCH79797 1 μM, FIG. 5A",significantly inhibited
thrombin,expression levels of early endosome markers Rab-5 and EEA-1,"Rab-5 and EEA-1; thrombin treatment vs none, FIG. 3A",significantly increased
same,expression of non-phosphorylated ERK1/2 and AKT,"[1]; thrombin treatment, not statistically significant, FIG. 3B",tended to increase slightly
same,expression of pERK1/2 and pAKT (phosphorylation of ERK1/2 and AKT),"[1]; thrombin-pretreated vs not treated, FIG. 3B",significantly increased
same,EVs observed by SEM/TEM,[5],more EVs were observed
same,"levels of proteins in extracellular vesicles, increase",[2]; [6],≥ 2 fold
same,"levels of VEGF, angiogenin, angiopoietin-1 and HGF in EVs","[2]; thrombin 2 U/mL and 4 U/mL vs not treated, FIG. 1B",significantly increased
same,"amount of produced extracellular vesicles, increase",[3]; [6],≥ 5 fold
same,production of EVs,[3]; thrombin 1-4 U/mL,increased in a thrombin concentration-dependent manner
same,production of EVs,[3]; thrombin 2 U/mL and 4 U/mL,significantly increased
same,number of isolated EVs,"[3]; thrombin-pretreated vs not treated, FIG. 1E",greater number
same,level of early endosomes,"[4]; thrombin-pretreated vs naive, FIG. 1C",significantly increased; also recorded: significantly high level
